From US20240156800A1, “EP300 DEGRADER AND USES THEREOF IN NEUROBLASTOMA” (DANA-FARBER CANCER INSTITUTE, INC., priority 2021, published 2024)
Entries after “also recorded” stand apart in the source; their conditions may differ.

Columns and labels:
[1] = system: Kelly, NGP and SIMA NB cells; assay: Cell Titer-Glo cell viability / growth assay; type: cell-based, human; details: 6 days, compared with (S,S) stereoisomer and A485
Protocol: Cells were infected with lentiviruses encoding sgRNAs or treated with compounds as described. Colony assays were performed by replating cells at 500 cells per well in 6-well dishes and grown in regular growth media for 10 d before 100% methanol fixation, 0.05% crystal violet staining, and quantitation. Experiments were completed in triplicate; data shown are the average of three independent experiments. Cell Titer-Glo® assay was performed as per the manufacturer's instructions (Promega®). Briefly, 1000 cells/well were plated into 96-well plates and treated with a range of compound dosing. Cell viability was measured at the noted time points based on luminescence by the Cell Titer-Glo® assay (Promega®) and read on an Envision 2104 (PerkinElmer®, USA) according to the manufacturer's protocol.

CBP = target: T1, CBP (Homo sapiens, UniProt Q92793); assay: Immunohistochemistry of CBP in Kelly cell xenografts; type: in vivo; details: 40 mg/Kg once daily
T1 construct: Cells growing in culture were lysed for whole cell lysates; endogenous in cells; host or cells: Kelly, NGP, SIMA, BE2C neuroblastoma cells; Kelly xenografts in NSG mice
Protocol: (§1) Separately, eight animals were xenografted as described above, and treated with vehicle (n=4) or JQAD1 (n=4) at 40 mg/kg IP daily for 14 days. These animals were sacrificed at day 14, following which tumor was extracted, and divided for immunohistochemical analysis or analysis of RNA expression by RNA sequencing (RNA-seq). Immunohistochemistry was performed on the Leica® Bond™ III automated staining platform. Antibody EP300 from Cell Signaling Technology®, catalog number 86377, clone D8Z4E, was run at 1:50 dilution using the Leica® Biosystems Refine Detection Kit with citrate antigen retrieval. Antibody KAT3A/CBP (catalog number ab2832, polyclonal, Abcam) was run at 1:200 using the Leica® Biosystems Refine Detection Kit with ethylenediaminetetraacetic acid (EDTA) antigen retrieval.

[2] = Toxicity study in Balb/c Crbn ILE391VAL humanized knockin mice; type: in vivo
Protocol: For toxicity studies, four female CD1 mice (Charles River Laboratories) were injected intraperitoneally (IP) with single doses of 10 mg/Kg (R,S)-JQAD1 solubilized in 10% hydroxypropyl β-cyclodextrin (Sigma-Aldrich®) in sterile water. Following injection, blood concentration of (R,S)-JQAD1 was measured by serial measurements of animal serum at time points out to 24 h, by liquid chromatography with tandem mass spectrometry (LC-MS/MS) analysis. Pharmacokinetics were performed at ChemPartner in Shanghai, China, using LC-MS/MS method and pharmacokinetics parameters (Tmax, Cmax, T1/2, AUC, etc.) calculated with WinNonlin® V 6.2 statistics software (Pharsight Corporation) using a noncompartmental model. For maximally tolerated dose (MTD) testing, six female CD1 mice were treated with daily IP doses of (R,S)-JQAD1 at 10, 20, or 40 mg/kg. Animals were monitored for animal weight, grooming and behavior daily without noted effects. […] Animal weights, behavior and grooming were monitored daily, for a total of 21 days. At day 14, three mice per treatment group were sacrificed and tissues fixed for immunohistochemistry. Blood samples were obtained by retro-orbital puncture and blood analyzed at the Small Animal Imaging Facility at Beth Israel Deaconess Medical Center (Boston, MA), on a Hemavet® 9500FS (Drew Scientific) for blood counts, creatinine, AST, ALT, ALP, GGTP, and BUN measurements.

EP300 [3] = target: T2, EP300 (Homo sapiens, UniProt Q09472); assay: Immunohistochemistry of EP300 in Kelly cell xenografts; type: in vivo; details: 40 mg/Kg once daily
T2 construct: Cells growing in culture were lysed for whole cell lysates; endogenous in cells; host or cells: Kelly, NGP, SIMA, BE2C neuroblastoma cells; Kelly xenografts in NSG mice
Protocol: as §1

EP300 [4] = target: T2, EP300; assay: Western blotting of EP300 in treated NB cells; type: cell-based
Protocol: (§2) Cells growing in culture were lysed for whole cell lysates as described in Durbin et al. Nat. Genet. 50:1240-1246 (2018) and Wang et al. Nat. Commun. 10:5622 (2019). Nuclear lysates were prepared using the NE-PER® nuclear lysate kit (Thermo Scientific™) according to the manufacturer's protocol. Chromatin lysates were prepared with the total histone extraction kit (Epigentek). Briefly, equivalent amounts of protein were resolved by western blotting using 4-12% Bis-Tris NuPAGE™ gels (Thermo-Fisher Scientific) prior to transfer, and immunoblotting using primary antibodies to: MYCN (1:1000, Cell Signaling Technology®), H3K27ac (1:1000, Abcam), total H3 (1:1000, Cell Signaling Technology®), EP300 (1:1000, Abcam), CBP (1:500, Cell Signaling Technology®), Cas9 (1:1000, Cell Signaling Technology®), cleaved-PARP1 (1:1000, Cell Signaling Technology), cleaved Caspase-3 (1:1000, Cell Signaling Technology®), β-actin (1:1000, Cell Signaling Technology®), GATA3 (1:1000, EMD Millipore™), TFAP2β (1:1000, Cell Signaling Technology®), Vinculin (1:1000, EMD Millipore™), CRBN (1:1000, Cell Signaling Technology®), HAND2 (1:1000, Santa Cruz Biotechnology). Secondary antibodies were horseradish peroxidase (HRP)-conjugated anti-rabbit or anti-mouse (1:5000, Santa Cruz Biotechnology), incubated prior to exposure to enhanced chemiluminescence reagents (GE, Amersham). For immunoprecipitation, equal amounts of protein were diluted in buffer C as described in Mansour et al. Science 346:1373-1377 (2014) and incubated with antibodies covalently conjugated to Dynabeads™ M-270 beads (Thermo-Fisher Scientific) overnight according to the manufacturer's directions. Antibodies used included: H3K27ac, EP300 (Abcam), CBP, TFAP2β (Cell Signaling Technology®), rabbit immunoglobulin G (IgG) (Santa Cruz Biotechnology®). Immunoprecipitated protein was isolated as per the manufacturer's directions and subjected to western blotting, as described above, or mass spectrometry.

[5] = system: cleaved caspase-3 and cleaved PARP1; assay: Western blotting of apoptosis markers; type: cell-based, human; details: Kelly (1 μM) and NGP (2.5 μM) cells, 12-36 h
Protocol: as §2

[6] = 40 mg/Kg IP daily, after 14 days, p NS versus vehicle

T2 sequence (Q09472 whole entry): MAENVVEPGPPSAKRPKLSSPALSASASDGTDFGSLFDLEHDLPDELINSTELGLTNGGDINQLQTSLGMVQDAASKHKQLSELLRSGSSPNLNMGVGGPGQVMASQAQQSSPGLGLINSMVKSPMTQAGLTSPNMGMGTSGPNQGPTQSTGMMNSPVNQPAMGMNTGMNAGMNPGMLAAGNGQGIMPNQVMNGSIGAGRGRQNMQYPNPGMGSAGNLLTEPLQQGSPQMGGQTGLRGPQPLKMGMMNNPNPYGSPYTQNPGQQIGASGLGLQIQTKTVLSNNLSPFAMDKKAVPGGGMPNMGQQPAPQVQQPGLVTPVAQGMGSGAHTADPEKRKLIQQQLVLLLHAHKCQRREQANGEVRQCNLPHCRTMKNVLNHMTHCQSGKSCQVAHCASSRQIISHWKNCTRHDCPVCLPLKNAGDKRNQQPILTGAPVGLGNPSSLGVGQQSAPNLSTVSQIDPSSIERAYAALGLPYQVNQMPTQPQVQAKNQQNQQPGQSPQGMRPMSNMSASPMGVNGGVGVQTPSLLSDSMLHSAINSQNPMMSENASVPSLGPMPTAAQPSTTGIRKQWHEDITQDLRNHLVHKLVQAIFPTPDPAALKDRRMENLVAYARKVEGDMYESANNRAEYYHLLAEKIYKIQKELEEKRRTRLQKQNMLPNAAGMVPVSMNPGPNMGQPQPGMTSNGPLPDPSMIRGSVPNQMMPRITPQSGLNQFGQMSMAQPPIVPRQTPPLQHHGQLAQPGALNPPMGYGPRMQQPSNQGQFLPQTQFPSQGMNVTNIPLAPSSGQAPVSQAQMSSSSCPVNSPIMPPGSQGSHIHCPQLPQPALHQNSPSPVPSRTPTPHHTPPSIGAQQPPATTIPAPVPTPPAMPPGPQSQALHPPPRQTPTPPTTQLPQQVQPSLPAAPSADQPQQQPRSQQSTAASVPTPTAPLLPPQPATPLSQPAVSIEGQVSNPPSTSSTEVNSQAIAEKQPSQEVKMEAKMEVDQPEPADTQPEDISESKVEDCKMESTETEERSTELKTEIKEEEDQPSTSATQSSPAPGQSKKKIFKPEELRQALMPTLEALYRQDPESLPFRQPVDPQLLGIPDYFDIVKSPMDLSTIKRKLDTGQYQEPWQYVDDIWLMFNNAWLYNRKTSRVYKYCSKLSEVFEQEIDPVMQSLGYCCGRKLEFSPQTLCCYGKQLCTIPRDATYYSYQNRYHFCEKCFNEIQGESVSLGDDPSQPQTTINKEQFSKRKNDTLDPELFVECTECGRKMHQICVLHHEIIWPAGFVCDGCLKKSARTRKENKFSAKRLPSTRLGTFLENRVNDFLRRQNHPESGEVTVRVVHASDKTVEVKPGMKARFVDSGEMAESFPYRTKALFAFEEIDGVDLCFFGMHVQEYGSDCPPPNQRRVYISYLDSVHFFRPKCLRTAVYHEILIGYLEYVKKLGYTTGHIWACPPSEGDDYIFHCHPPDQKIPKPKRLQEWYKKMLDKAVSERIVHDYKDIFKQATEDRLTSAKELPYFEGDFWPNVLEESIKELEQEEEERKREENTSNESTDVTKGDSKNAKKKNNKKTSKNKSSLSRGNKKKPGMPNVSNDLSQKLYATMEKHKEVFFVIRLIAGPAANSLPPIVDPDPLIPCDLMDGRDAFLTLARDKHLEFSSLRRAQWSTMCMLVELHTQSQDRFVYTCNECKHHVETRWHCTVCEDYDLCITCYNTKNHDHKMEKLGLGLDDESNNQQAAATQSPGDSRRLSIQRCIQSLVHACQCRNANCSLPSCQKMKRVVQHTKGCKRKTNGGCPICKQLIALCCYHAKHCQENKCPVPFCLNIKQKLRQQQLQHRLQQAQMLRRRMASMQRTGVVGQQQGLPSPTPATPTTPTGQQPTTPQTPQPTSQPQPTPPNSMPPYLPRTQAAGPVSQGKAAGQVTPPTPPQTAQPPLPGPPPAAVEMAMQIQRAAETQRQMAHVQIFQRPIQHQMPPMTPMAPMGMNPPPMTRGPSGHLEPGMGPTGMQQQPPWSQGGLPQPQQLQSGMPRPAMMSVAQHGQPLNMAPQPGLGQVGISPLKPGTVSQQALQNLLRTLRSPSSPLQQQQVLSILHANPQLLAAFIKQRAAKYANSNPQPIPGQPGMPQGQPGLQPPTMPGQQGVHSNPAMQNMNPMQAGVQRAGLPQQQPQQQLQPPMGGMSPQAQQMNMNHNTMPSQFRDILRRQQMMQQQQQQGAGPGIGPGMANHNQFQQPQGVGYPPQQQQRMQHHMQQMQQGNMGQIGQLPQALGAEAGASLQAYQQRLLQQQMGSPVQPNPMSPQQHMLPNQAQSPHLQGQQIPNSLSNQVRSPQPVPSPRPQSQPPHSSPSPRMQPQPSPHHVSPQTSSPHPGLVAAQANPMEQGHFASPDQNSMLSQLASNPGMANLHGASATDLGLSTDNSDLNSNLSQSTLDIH
T1 sequence (Q92793 whole entry): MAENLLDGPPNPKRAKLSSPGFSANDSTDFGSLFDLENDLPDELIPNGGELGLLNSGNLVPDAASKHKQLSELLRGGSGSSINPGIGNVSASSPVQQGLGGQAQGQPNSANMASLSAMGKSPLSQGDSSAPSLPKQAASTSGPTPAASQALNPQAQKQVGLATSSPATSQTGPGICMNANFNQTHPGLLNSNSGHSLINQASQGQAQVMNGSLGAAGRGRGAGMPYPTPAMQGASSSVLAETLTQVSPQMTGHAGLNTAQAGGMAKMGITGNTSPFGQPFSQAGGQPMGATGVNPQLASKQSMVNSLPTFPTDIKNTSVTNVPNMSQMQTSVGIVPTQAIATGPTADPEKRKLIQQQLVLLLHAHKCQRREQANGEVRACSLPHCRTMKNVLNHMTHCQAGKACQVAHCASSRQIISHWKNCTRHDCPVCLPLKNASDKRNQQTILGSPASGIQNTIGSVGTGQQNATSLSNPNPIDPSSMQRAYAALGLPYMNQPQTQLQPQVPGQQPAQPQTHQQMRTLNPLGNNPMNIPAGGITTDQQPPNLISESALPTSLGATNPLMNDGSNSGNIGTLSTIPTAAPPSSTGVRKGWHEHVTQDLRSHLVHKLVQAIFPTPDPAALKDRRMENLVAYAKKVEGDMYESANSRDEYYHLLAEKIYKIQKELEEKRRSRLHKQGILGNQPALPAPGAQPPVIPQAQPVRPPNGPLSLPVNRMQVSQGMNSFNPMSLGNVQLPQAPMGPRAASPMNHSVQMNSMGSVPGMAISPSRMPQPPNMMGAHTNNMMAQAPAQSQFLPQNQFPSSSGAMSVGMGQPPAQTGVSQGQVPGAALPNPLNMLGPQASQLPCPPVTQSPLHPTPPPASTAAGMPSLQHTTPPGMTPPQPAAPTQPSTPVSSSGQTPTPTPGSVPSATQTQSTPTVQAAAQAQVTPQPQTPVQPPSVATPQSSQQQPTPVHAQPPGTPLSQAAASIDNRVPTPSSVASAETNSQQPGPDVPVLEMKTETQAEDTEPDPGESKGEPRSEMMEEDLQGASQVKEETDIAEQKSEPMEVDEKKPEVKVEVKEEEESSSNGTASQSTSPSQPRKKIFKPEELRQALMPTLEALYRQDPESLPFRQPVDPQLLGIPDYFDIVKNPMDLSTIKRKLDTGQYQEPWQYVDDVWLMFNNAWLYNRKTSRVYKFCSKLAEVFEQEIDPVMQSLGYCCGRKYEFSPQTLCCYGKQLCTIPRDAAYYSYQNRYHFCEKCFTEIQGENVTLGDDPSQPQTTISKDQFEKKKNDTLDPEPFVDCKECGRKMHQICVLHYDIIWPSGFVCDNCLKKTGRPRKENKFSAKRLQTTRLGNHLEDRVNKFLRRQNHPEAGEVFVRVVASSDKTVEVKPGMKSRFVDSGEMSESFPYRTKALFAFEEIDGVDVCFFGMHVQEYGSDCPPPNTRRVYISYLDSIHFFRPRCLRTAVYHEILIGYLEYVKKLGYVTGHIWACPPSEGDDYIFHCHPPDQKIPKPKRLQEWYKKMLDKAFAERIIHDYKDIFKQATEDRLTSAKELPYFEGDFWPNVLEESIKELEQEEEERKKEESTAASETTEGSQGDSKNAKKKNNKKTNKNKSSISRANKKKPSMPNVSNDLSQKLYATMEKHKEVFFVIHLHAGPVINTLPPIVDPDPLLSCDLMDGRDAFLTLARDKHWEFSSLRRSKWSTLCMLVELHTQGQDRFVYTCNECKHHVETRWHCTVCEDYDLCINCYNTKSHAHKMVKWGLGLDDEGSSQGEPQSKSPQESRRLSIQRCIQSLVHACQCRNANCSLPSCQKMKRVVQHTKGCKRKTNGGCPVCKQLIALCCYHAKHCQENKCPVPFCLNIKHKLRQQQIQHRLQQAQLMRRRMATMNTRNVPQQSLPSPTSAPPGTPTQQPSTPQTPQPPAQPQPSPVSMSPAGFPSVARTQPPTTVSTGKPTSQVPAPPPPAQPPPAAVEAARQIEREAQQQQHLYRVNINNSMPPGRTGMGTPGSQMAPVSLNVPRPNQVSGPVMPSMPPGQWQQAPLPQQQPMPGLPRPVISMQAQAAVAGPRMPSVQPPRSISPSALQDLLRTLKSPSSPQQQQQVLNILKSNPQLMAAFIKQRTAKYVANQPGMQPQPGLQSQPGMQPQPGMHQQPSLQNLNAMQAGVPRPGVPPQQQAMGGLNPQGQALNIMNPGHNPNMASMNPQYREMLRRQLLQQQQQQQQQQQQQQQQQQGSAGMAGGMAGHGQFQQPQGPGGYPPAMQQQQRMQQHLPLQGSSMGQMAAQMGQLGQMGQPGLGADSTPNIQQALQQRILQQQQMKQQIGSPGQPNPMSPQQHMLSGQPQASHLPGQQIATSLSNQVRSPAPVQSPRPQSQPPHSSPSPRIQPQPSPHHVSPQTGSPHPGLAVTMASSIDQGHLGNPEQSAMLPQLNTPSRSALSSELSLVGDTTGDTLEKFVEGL

Compound: C[C@H](N(Cc1ccc(F)cc1)C(=O)CN1C(=O)O[C@@]2(CCc3cc(NC(=O)CCCCCCCCCCCNc4ccc5c(c4)C(=O)N(C4CCC(=O)NC4=O)C5=O)ccc32)C1=O)C(F)(F)F (stereo partly drawn) [JQAD1, 12-((2-(2,6-dioxopiperidin-3-yl)-1,3-dioxoisoindolin-5-yl)amino)-N-((R)-3′-(2-((4-fluorobenzyl)((S)-1,1,1-trifluoropropan-2-yl)amino)-2-oxoethyl)-2′,4′-dioxo-2,3-dihydrospiro[indene-1,5′-oxazolidin]-5-yl)dodecanamide]
- IC50 in intact NB cells (comparison) [1]: lowest IC50 concentration
- CBP immunostaining of tumors (CBP): CBP immunostaining was retained
- tolerability ([2]; 40 mg/Kg IP daily for 21 days, measurements after 14 days): well tolerated, with no effects on grooming, behavior, weight, peripheral blood counts, liver function tests or creatinine measurements
- tissue pathology (hematoxylin and eosin) ([2]; 40 mg/Kg IP daily, 14 days, blinded pathologist): no gross changes in tissue architecture or immune infiltrate; also recorded: no histologic or biochemical evidence of toxicity in the liver
- ALP [2, 6]: 51
- ALT [2, 6]: 54
- AST [2, 6]: 37
- Albumin [2, 6]: 3.2
- Basophils [2, 6]: 0.02 K/μL
- Creatinine [2, 6]: 0.17
- Eosinophils [2, 6]: 0.10
- GGTP [2, 6]: 5
- Hematocrit [2, 6]: 41.2%
- Hemoglobin [2, 6]: 13.35
- Lymphocytes [2, 6]: 1.80
- Monocytes [2, 6]: 0.35 K/μL
- Neutrophils [2, 6]: 1.2
- Platelet [2, 6]: 528 K/μL
- WBC [2, 6]: 3.46 K/μL
- toxicity (blood counts, liver and kidney function tests, weight, grooming) ([2]; twice daily 40 mg/Kg IP for 14 days): no toxicity was observed
- EP300 immunostaining of tumors (EP300 [3]): loss of EP300 immunostaining compared with vehicle control tumors
- EP300 expression in BE2C-CRBN cells (EP300 [4]; BE2C cells overexpressing CRBN, 10 μM): degraded within 24 h
- EP300 expression in control BE2C-zsGreen cells (EP300 [4]; BE2C-zsGreen cells, 10 μM): unaffected
- degradation of EP300 on co-treatment with excess A485, pomalidomide, bortezomib or MLN4924 (EP300 [4]; Kelly cells, 4 h pre-treatment, then JQAD1 500 nM 48 h): blocked
- EP300 expression (EP300 [4]; Kelly cells, 24 h): dose-dependent decrease in EP300 expression
- EP300 expression (EP300 [4]; Kelly cells, 24 h, listed as (R,S)-JQAD1): suppressed both H3K27ac and EP300 expression levels
- EP300 expression (time course) (EP300 [4]; Kelly, NGP and SIMA cells): selective loss of EP300 expression by 24 h
- EP300, H3K27ac and PARP1 cleavage in control versus CRBN-edited cells (EP300 [4]; Kelly-Cas9 cells, 500 nM, 24 h): suppressed EP300 expression and the H3K27ac modification, and induced apoptosis marked by PARP1 cleavage in control knockout cells, but not in CRBN-edited cells
- apoptosis: cleavage of caspase-3 and PARP1 [5]: induction of cellular apoptosis marked by cleavage of caspase-3 and PARP1
